Results from ChEMBL document CHEMBL2177022, “Novel acidic 11β-hydroxysteroid dehydrogenase type 1 (11β-HSD1) inhibitor with reduced acyl glucuronide liability: the discovery of 4-[4-(2-adamantylcarbamoyl)-5-tert-butyl-pyrazol-1-yl]benzoic acid (AZD8329)” (J Med Chem, 2012).

How the values were obtained:
[1] = Intrinsic clearance in rat hepatocytes assessed per 10^6 cells
[2] = Percentage unbound in rat plasma at 37 degC by equilibrium dialysis method; format: ADME, cell-free
[3] = Oral bioavailability in rat; format: ADME, organism-based; details: in vivo
[4] = Lipophilicity, log D at pH 7.4 by shake flask method; details: buffer
in vivo = details: rat
[5] = Inhibition of N-terminal 6-His tagged full length cynomolgus monkey 11betaHSD1 incubated for 25 mins by HTRF assay; parameters: species or system Macaca fascicularis
[6] = Inhibition of N-terminal 6-His tagged full length dog 11betaHSD1 incubated for 25 mins by HTRF assay; parameters: species or system Canis lupus familiaris
[7] = Drug metabolism in bile duct cannulated rat urine assessed as ratio of glucuronidation to oxidative metabolism level during 0 to 6 hrs post dose by metabolism-ID study; format: ADME, tissue-based; details: in vivo
[8] = Drug metabolism in bile duct cannulated rat bile assessed as ratio of glucuronidation to oxidative metabolism level during 0 to 6 hrs post dose by metabolism-ID study; format: ADME; details: in vivo
[9] = Drug metabolism in bile duct cannulated rat urine assessed as oxidative metabolism level during 0 to 6 hrs post dose by metabolism-ID study; format: ADME, tissue-based; details: in vivo
[10] = Drug metabolism in bile duct cannulated rat bile assessed as oxidative metabolism level during 0 to 6 hrs post dose by metabolism-ID study; format: ADME; details: in vivo
[11] = Stability in bile duct cannulated rat urine assessed as parent compound remaining measured during 0 to 6 hrs post dose; format: ADME, tissue-based; details: in vivo
[12] = Stability in bile duct cannulated rat bile assessed as parent compound remaining measured during 0 to 6 hrs post dose; format: ADME; details: in vivo
Hepatocyte [13] = assay: Drug metabolism in human hepatocytes assessed as ratio of glucuronidation to oxidative metabolism level by metabolism-ID study; format: ADME, cell-based
[14] = Drug metabolism in dog hepatocytes assessed as ratio of glucuronidation to oxidative metabolism level by metabolism-ID study; format: ADME, cell-based, Canis lupus familiaris, Hepatocyte
Hepatocyte [15] = assay: Drug metabolism in rat hepatocytes assessed as ratio of glucuronidation to oxidative metabolism level by metabolism-ID study; format: ADME, cell-based
[16] = Drug metabolism in dog hepatocytes assessed as oxidative metabolism level by metabolism-ID study; format: ADME, cell-based, Canis lupus familiaris, Hepatocyte

SMILES	hepatocyte CLint [1] [µL/min/1e6 cells]	fraction unbound [2]	bioavailability [3] [%]	logD [4]	clearance (in vivo) [mL/min/kg]	further results
CCCSc1c(C(=O)N[C@H]2C3CC4CC2C[C@](OC)(C4)C3)cnn1-c1ccc(C(=O)O)cc1	< 2	0.285	54	< 0.5	13	–
CCCSc1c(C(=O)NC2CCCCC2)cnn1-c1ccc(C(=O)O)cc1	< 3	0.04	72	0.6	4.5	–
CCCSc1c(C(=O)N[C@H]2C3CC4CC2C[C@](O)(C4)C3)cnn1-c1ccc(C(=O)O)cc1	< 2	0.105	10	-0.4	20	–
CCCSc1ncccc1C(=O)NC1CCCCC1	–	–	–	3.2	–	–
CCCSc1c(C(=O)N(C)C2CCCCC2)cnn1-c1ccc(C(=O)O)cc1	26	0.025	26	0.6	8.1	–
O=C(O)c1ccc(-n2ncc(C(=O)NC3C4CC5CC(C4)CC3C5)c2SC2CCCCC2)cc1 (centres undefined)	9.4	0.0013	82	3	3.6	–
CCCSc1c(C(=O)N[C@H]2C3CC4CC2C[C@](OC(F)F)(C4)C3)cnn1-c1ccc(C(=O)O)cc1	18	0.026	40	1.2	9.4	–
CCCSc1c(C(=O)NC2CCCCC2)cnn1[C@H]1CC[C@H](C(=O)O)CC1	7.5	0.093	100	1	2.5	–
CCCSc1c(C(=O)NC2CCCCC2)cnn1[C@H]1CC[C@@H](C(=O)O)CC1	58	–	49	1.4	43	–
CCCSc1c(C(=O)NC2CCCCC2)cnn1C	–	0.132	0	3	–	–
CCCSc1c(C(=O)NC2CCCCC2)cnn1-c1cccc(C(=O)O)c1	17	0.02	> 100	0.7	17	–
CCCSc1c(C(=O)N[C@H]2C3CC4CC2C[C@](S(C)(=O)=O)(C4)C3)cnn1-c1ccc(C(=O)O)cc1	–	0.134	7	< 0.5	–	–
CCCSc1nc(N2CCC[C@@H](CC(=O)O)C2)ccc1C(=O)NC1CCCCC1 [AZD-4017]	–	–	–	–	–	IC50 [5]: 29 nM; IC50 [6]: 3770 nM; Ratio [7]: 2.4; Ratio [8]: 7.5; Drug metabolism [9]: 28%; Drug metabolism [10]: 10%; Stability [11]: 4%; Stability [12]: 15%; Ratio (Hepatocyte [13]): 6; Ratio [14]: 4.1; Ratio (Hepatocyte [15]): 2.1; Drug metabolism [16]: 13%

Further lines, with some results ahead:

hepatocyte CLint [1] [µL/min/1e6 cells]	fraction unbound [2]	bioavailability [3] [%]	logD [4]	clearance (in vivo) [mL/min/kg]	SMILES	further results
6.6	0.107	–	–	–	O=C(O)c1ccc(-n2cc(C(=O)NC3C4CC5CC(C4)CC3C5)cn2)cc1 (centres undefined)	–
6	0.0131	65	1.5	3	CCSc1c(C(=O)NC2C3CC4CC(C3)CC2C4)cnn1-c1ccc(C(=O)O)cc1 (centres undefined)	–
< 2	0.036	53	1.2	2.2	CC(C)c1c(C(=O)NC2C3CC4CC(C3)CC2C4)cnn1-c1ccc(C(=O)O)cc1 (centres undefined)	–
14	0.0015	57	2.6	3.3	O=C(O)c1ccc(-n2ncc(C(=O)NC3C4CC5CC(C4)CC3C5)c2SC2CCCC2)cc1 (centres undefined)	–
< 3	0.012	> 100	–	1.3	O=C(O)c1ccc(-n2ncc(C(=O)NC3C4CC5CC(C4)CC3C5)c2C2CCC2)cc1 (centres undefined)	–
15	0.045	51	0.9	14	O=C(O)c1ccc(-n2ncc(C(=O)NC3C4CC5CC(C4)CC3C5)c2C2CC2)cc1 (centres undefined)	–
–	0.045	> 100	–	–	O=C(O)c1ccc(-n2ncc(C(=O)NC3C4CC5CC(C4)CC3C5)c2C(F)(F)F)cc1 (centres undefined)	–
11	0.033	> 100	1.1	19	CC1(c2c(C(=O)NC3C4CC5CC(C4)CC3C5)cnn2-c2ccc(C(=O)O)cc2)CC1 (centres undefined)	–
–	0.005	45	1.8	–	CCCSc1c(C(=O)NC2C3CC4CC(C3)CC2C4)cnn1-c1ccc(C(=O)O)cc1 (centres undefined)	–
–	0.06	> 100	0.9	–	CCc1c(C(=O)NC2C3CC4CC(C3)CC2C4)cnn1-c1ccc(C(=O)O)cc1 (centres undefined)	–
–	0.004	> 100	1.7	–	O=C(O)c1ccc(-n2ncc(C(=O)NC3C4CC5CC(C4)CC3C5)c2C2CCCC2)cc1 (centres undefined)	–
< 2	0.0336	64	1.2	11	CSc1c(C(=O)NC2C3CC4CC(C3)CC2C4)cnn1-c1ccc(C(=O)O)cc1 (centres undefined)	–
< 3	0.127	> 100	–	8	Cc1c(C(=O)NC2C3CC4CC(C3)CC2C4)cnn1-c1ccc(C(=O)O)cc1 (centres undefined)	–
